In one assay the test system is HCV replicon. Put plainly: Three-drug combination studies in HCV replicon system, combination index. The assay is classed as cell-based. The protocol:
[…] an NS5B replicase inhibitor (compound 2006; WO 03/010141), were tested in 2-drug combinations with the macrocyclic HCV NS3 protease inhibitor compound 28. In addition, compound 28 was also tested in 3-drug combinations with the NS5A and NS5B inhibitors.
For the experiments shown in Tables 8 and 9, inhibitors were tested at eleven concentrations each. 200× stock solutions of each inhibitor concentration were prepared by 2- or 3-fold dilution in DMSO prior to addition to cells/media. The drugs were tested as monotherapies and in combination with the NS3 protease inhibitor at various concentration ratios. Cells were exposed to compounds for 4 days and the amount of HCV inhibition was then determined using the FRET assay. The potential cytotoxicities of these combined agents were also analyzed in parallel by Alamar Blue staining. […] The degree of antagonism, additivity, or synergy was determined over a range of drug concentrations, and combination response curves were fit to assess the antiviral effects of the drug treatment combinations. The concentration ratios were analyzed using the method of Chou (Chou, Ting-Chao, and Rideout (Editors), (1991) Synergism and Antagonism in Chemotherapy, P. 61–101, Academic Press, New York). Tables 8 and 9 report the estimated EC50 values for the compounds tested, as well as the combination indices (CI). All estimates were computed using SAS Proc NLIN, and a two-parameter logistic. All combination indices were tested for departure from additivity using isobologram methods. Asymptotic confidence intervals were also calculated for each of the combination indices. These intervals are used to test for departure from additivity by comparing the bounds to one—a lower bound of the interval greater than 1 indicates antagonism, an upper bound of less than 1 indicates synergism, and a value of 1 contained in the interval indicates additivity.
Compound 28 was also tested in 3-drug combination experiments with the NS5A inhibitor and the NS5B inhibitor (Table 12). The starting concentrations for the mono-therapies consisted of a 0.667 μM solution of the NS5A inhibitor, a 0.3 μM solution of compound 28, and a 2.5 μM solution of the NS5B inhibitor. The starting concentration for the triple combination contained a mixture of ⅓ of each of the above concentrations. Dose response curves for all three mono-therapies and the triple combination therapy were obtained using 3-fold dilutions, and data analysis was carried out as described above for combination index experiments.
A general note: In antiviral work, replicon cells carry a viral genome segment that copies itself.

For assay [1], the target named is T1, porcine pancreatic elastase (PPE) (Sus scrofa, UniProt P00772).
T1 construct: purchased Sigma
T1 sequence (P00772 27-266): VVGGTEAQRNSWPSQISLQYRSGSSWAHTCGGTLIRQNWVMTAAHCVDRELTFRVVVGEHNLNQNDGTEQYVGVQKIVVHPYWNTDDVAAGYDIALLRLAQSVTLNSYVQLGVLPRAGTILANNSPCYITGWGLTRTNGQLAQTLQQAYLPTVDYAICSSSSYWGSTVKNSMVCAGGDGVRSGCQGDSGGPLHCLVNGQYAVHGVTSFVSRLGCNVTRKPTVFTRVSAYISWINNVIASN
Put plainly: Specificity assay, porcine pancreatic elastase. Format: biochemical. Conditions: read-out: PPE activity in the specificity assays (IC50). The procedure:
(§1) The specificities of compounds of the present invention were determined against a variety of serine proteases: human neutrophil elastase (HNE), porcine pancreatic elastase (PPE) and human pancreatic chymotrypsin and one cysteine protease: human liver cathepsin B. In all cases a 96-well plate format protocol using calorimetric p-nitroaniline (pNA) substrate specific for each enzyme was used as described previously (PCT Patent Application No. WO 00/09543) with some modifications to the serine protease assays. All enzymes were purchased from Sigma while the substrates were from Bachem.
(§2) Each assay included a 2 hr enzyme-inhibitor pre-incubation at room temperature followed by addition of substrate and hydrolysis to ˜30% conversion as measured on a Spectramax Pro microplate reader. Compound concentrations varied from 100 to 0.4 micromolar (“μM”) depending on their potency. […]
(§3) The percentage of inhibition was calculated using the formula: [1−((UVinh−UVblank)/(UVctl−UVblank))]×100 […]

In assay [2] the test system is human pancreatic chymotrypsin. Put plainly: Specificity assay, chymotrypsin. Format: biochemical. Conditions: read-out: Chymotrypsin activity in the specificity assays (IC50). The procedure:
as §1, §2, §3

For assay [3], the target named is T2, human neutrophil elastase (HNE) (Homo sapiens, UniProt P08246).
T2 construct: purchased Sigma
T2 sequence (P08246 30-267): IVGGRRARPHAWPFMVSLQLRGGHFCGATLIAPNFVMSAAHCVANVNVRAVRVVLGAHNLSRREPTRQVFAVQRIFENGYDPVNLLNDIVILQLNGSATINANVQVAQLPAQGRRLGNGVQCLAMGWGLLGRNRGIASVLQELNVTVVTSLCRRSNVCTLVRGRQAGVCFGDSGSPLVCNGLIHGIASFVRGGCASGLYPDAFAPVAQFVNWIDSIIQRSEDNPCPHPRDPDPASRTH
Briefly: Specificity assay, human neutrophil elastase. The assay is classed as biochemical. The note with it: read-out: HNE activity in the specificity assays (IC50). The procedure: as §1, §2, §3

Molecules are shown by their SMILES. “Also recorded” adds a separate entry of the source.

Broadly, the EC50 is the concentration at which the effect is half-maximal. In the case of `COc1ccc2c(OC3CC4C(=O)NC5(C(=O)NS(=O)(=O)C6CC6)CC5C=CCOCCCC(NC(=O)OC(C)(C)C)C(=O)N4C3)nccc2c1` (centres unmarked) [Compound 28, [4-Cyclopropanesulfonylaminocarbonyl-18-(6-methoxy-isoquinolin-1-yloxy)-2,15-dioxo-10-oxa-3,16-diaza-tricyclo[14.3.0.0^4,6]nonadec-7-en-14-yl]-carbamic acid tert-butyl ester], the “combination effect, 3-drug combination with the NS5A inhibitor and the NS5B inhibitor” value in the assay with HCV replicon (75, 90 and 95% effective doses) is “Synergistic effects; also recorded: No drug antagonism”. In addition, the half-maximal effective concentration (EC50) in the assay on HCV replicon (Hepatitis C virus, mono-therapy in the three-drug combination experiment, HCV replicon, NS3 Pr inhibitor is compound 28, read-out: NS3 Pr inhibitor EC50) stood at 0.008 µM.

Usually IC50 stands for the concentration that gives 50% inhibition. Take `CC(C)(C)OC(=O)N[C@H]1CCCCC/C=C\[C@@H]2C[C@@]2(C(=O)NS(C)(=O)=O)NC(=O)[C@@H]2C[C@@H](Oc3nccc4ccccc34)CN2C1=O` [Compound 2, [18-(Isoquinolin-1-yloxy)-4-methanesulfonylaminocarbonyl-2,15-dioxo-3,16-diaza-tricyclo[14.3.0.0^4,6]nonadec-7-en-14-yl]-carbamic acid tert-butyl ester]: the half-maximal inhibitory concentration (IC50) in assay [1], in assay [2] and in assay [3] was over 100 µM each time.
